Measurements published in PubChem BioAssay (NCI).
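Cells were grown in 96-well plates and exposed to each compound for 48 hours at five concentrations; endpoints were interpolated linearly between bracketing concentrations, or set to the highest concentration if not reached. GI50 = concentration required for 50% inhibition of growth. TGI: total growth inhibition.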

Columns and labels:
Assay in all cases: inhibition of tumour cell growth, NCI panel, 48 h
[1] = test system: OVCAR-4 ovarian
[2] = test system: A498 renal
[3] = test system: A549 NSCLC
[4] = test system: COLO 205 colon
[5] = test system: KM12 colon
[6] = test system: MALME-3M melanoma
[7] = test system: SK-MEL-2 melanoma
[8] = test system: SF-539 CNS
[9] = test system: SR leukemia
[10] = test system: HS 578T breast

| SMILES | GI50 [1] | TGI [1] | GI50 [2] | TGI [2] | GI50 [3] | TGI [3] | GI50 [4] | TGI [4] | GI50 [5] | TGI [5] | GI50 [6] | TGI [6] | GI50 [7] | TGI [7] | GI50 [8] | TGI [8] | TGI [9] | GI50 [10] | TGI [10] | GI50 [9] |
| --- | --- | --- | --- | --- | --- | --- | --- | --- | --- | --- | --- | --- | --- | --- | --- | --- | --- | --- | --- | --- |
| COc1cc(NC(N)=NCCC(C)(C)Oc2ccc(C(F)(F)F)cc2)ncc1C#N | 1.58 µM | 3.07 µM | 1.8 µM | 3.23 µM | 1.73 µM | 3.18 µM | 1.58 µM | 3.06 µM | 1.68 µM | 3.17 µM | 1.81 µM | 3.44 µM | 1.79 µM | 3.27 µM | 1.8 µM | 3.26 µM | – | – | – | – |
| COc1ccc(S(=O)(=O)Nc2ccccc2C(=O)O)cc1 | – | > 100 µM | – | > 100 µM | – | > 100 µM | – | > 100 µM | – | > 100 µM | – | > 100 µM | – | > 100 µM | – | > 100 µM | – | – | – | – |
| CCOC(=O)C1N(S(=O)(=O)c2ccc(C)cc2)CCC12c1ccccc1N(C(C)=O)C2c1ccc(OC)c(OC)c1 (stereo not drawn) | – | > 100 µM | – | > 100 µM | – | > 100 µM | – | > 100 µM | – | > 100 µM | – | > 100 µM | – | – | – | > 100 µM | – | – | – | – |
| CCCCCC[N+](C)(C)Cc1ccc(C[N+](C)(C)CCCCCC)cc1 | – | > 100 µM | – | 38.9 µM | – | 12.8 µM | – | – | – | – | – | 97.8 µM | – | 5.15 µM | – | – | 5.08 µM | – | – | – |
| CC(C)=CC(=O)C/C(=N\NC(N)=S)C(=O)Nc1ccc(Cl)cc1 | – | > 100 µM | – | > 100 µM | – | > 100 µM | – | > 100 µM | – | > 100 µM | – | > 100 µM | – | > 100 µM | – | > 100 µM | – | – | – | – |
| COC(=O)/C=C1/CCC(C(=O)OC)N1 (stereo not drawn) | – | > 100 µM | – | > 100 µM | – | > 100 µM | – | > 100 µM | – | > 100 µM | – | – | – | > 100 µM | – | > 100 µM | > 100 µM | – | – | – |
| Fc1ccc2[nH]cc(-c3nonc3-c3c[nH]c4ccc(Br)cc34)c2c1 | 3.45 µM | 18.5 µM | 2.7 µM | 6.38 µM | 2.87 µM | 7.99 µM | – | – | 1.77 µM | 4.05 µM | 2.34 µM | 7.85 µM | 2.23 µM | 5.13 µM | 2.15 µM | 5.27 µM | – | 2.27 µM | 5.96 µM | – |
| c1cc(N(CCn2cccn2)CCn2cccn2)cc(N(CCn2cccn2)CCn2cccn2)c1 | – | > 100 µM | – | > 100 µM | – | > 100 µM | – | > 100 µM | – | > 100 µM | – | – | – | > 100 µM | – | – | > 100 µM | – | – | – |
| COC(=O)N(C(=O)OC)C(C(=O)O)C(C)C (stereo not drawn) | – | > 100 µM | – | – | – | > 100 µM | – | > 100 µM | – | > 100 µM | – | – | – | > 100 µM | – | > 100 µM | – | – | – | – |
| Cc1[nH]c2ccccc2c1C(=O)CC1(O)C(=O)Nc2ccccc21 (stereo not drawn) | – | > 100 µM | – | > 100 µM | – | > 100 µM | – | > 100 µM | – | > 100 µM | – | – | – | > 100 µM | – | > 100 µM | > 100 µM | – | – | – |
| C=C(COC(C)=O)CC(OC(C)=O)c1ccccc1 (stereo not drawn) | – | > 100 µM | – | > 100 µM | – | > 100 µM | – | > 100 µM | – | > 100 µM | – | – | – | > 100 µM | – | > 100 µM | – | – | – | – |
| CCC[CH2][Sn]1([CH2]CCC)[O]CC(Cc2ccccc2)[O]1 (stereo not drawn) | 13.2 µM | 26 µM | 2.77 µM | 8.22 µM | 15.3 µM | 28.9 µM | 2.55 µM | 5.7 µM | 3.77 µM | 14.4 µM | 0.941 µM | 3.51 µM | 1.54 µM | 3.45 µM | 1.87 µM | 4.15 µM | 4.84 µM | – | – | 1.35 µM |
| Cc1nc(Nc2ccc(Cl)cc2)sc1C(=O)NNc1ccc([N+](=O)[O-])cc1[N+](=O)[O-] | – | 35.3 µM | – | 30.6 µM | – | 34.2 µM | – | 39.9 µM | – | 33.9 µM | – | 36.2 µM | – | 32.7 µM | – | 32 µM | – | – | – | – |
| Cc1ccc(NC(=O)C2C(=O)N(c3ccc(C)cc3)C(=O)/C2=N\NC(N)=S)cc1 (stereo not drawn) | – | > 100 µM | – | > 100 µM | – | – | – | > 100 µM | – | > 100 µM | – | > 100 µM | – | > 100 µM | – | > 100 µM | – | – | – | – |
| CCC[CH2][Sn]([CH2]CCC)([CH2]CCC)[O]c1ccc(Cl)cc1Cl | 0.114 µM | 0.236 µM | 0.0565 µM | 0.21 µM | 0.159 µM | 0.345 µM | 0.16 µM | 0.31 µM | 0.0939 µM | 0.244 µM | 0.0973 µM | 0.238 µM | 0.152 µM | 0.295 µM | 0.179 µM | 0.372 µM | – | – | – | – |
| Oc1[nH]c2ccccc2c1N=Nc1ccccn1 | – | 45.6 µM | – | 70.6 µM | – | > 100 µM | – | > 100 µM | – | 97.8 µM | – | – | – | > 100 µM | – | – | 47.6 µM | – | > 100 µM | – |
| Cc1cc(S(=O)(=O)Nc2nc3cscc3c(=O)n2Cc2ccccc2)c(S)cc1Cl | > 100 µM | > 100 µM | 46.6 µM | > 100 µM | 42.4 µM | > 100 µM | > 100 µM | > 100 µM | 21.9 µM | 74.7 µM | 28.7 µM | > 100 µM | – | – | 32.1 µM | > 100 µM | – | 65.6 µM | > 100 µM | – |
| Cc1cc2c(ccc3c(C)cc(=O)oc32)o1 | – | > 100 µM | – | – | – | > 100 µM | – | > 100 µM | – | > 100 µM | – | > 100 µM | – | > 100 µM | – | > 100 µM | > 100 µM | – | – | – |
| CN(C)CC(C)(C)/C(=N\Nc1ccccc1)c1ccccc1 | – | > 100 µM | – | > 100 µM | – | > 100 µM | – | > 100 µM | – | > 100 µM | – | > 100 µM | – | > 100 µM | – | 63.4 µM | – | – | – | – |
| C=C1C(=O)O[C@@H]2C[C@@H](C)[C@@H]3C=CC(=O)[C@@]3(C)[C@@H](OC(=O)CC(=O)O[C@H]3[C@@H]4C(=C)C(=O)O[C@@H]4C[C@@H](C)[C@@H]4C=CC(=O)[C@]43C)[C@H]12 | – | 0.14 µM | – | 0.467 µM | – | 2.46 µM | – | 0.0403 µM | – | 0.16 µM | – | 0.0368 µM | – | 0.224 µM | – | 0.0781 µM | 0.0548 µM | – | – | – |
| Cc1ccc(-c2csc(/N=C3\C(=O)Nc4ccccc43)n2)cc1 | 1.75 µM | 6.48 µM | 1.71 µM | 3.53 µM | 2.98 µM | 11.3 µM | 1.31 µM | 3.23 µM | 1.86 µM | 4.51 µM | 1.52 µM | 3.4 µM | 1.63 µM | 3.69 µM | 1.71 µM | 3.45 µM | – | 1.97 µM | 6.66 µM | – |
